Molecules are shown by their SMILES. “And” between values parts separate entries of the source, which are not always exact repeats. Equal entries are not always repeated. The source made the active and inactive calls. How the calls were made is not given here.

The test concerns NIH 3T3 STAT1-luciferase reporter, IFNg-stimulated, luminescence. In words: boost of IFNg-driven STAT1 luciferase signal – cell-based, luminescence, NIH 3T3, assay provider, late-stage follow-up (AID 449760). The settings on record: at 10 µM; stronger effect = higher value.
Regarding `CCN(CC)c1ccc2cc(C(=O)Nc3ccccn3)c(=O)oc2c1`, the fold change vs IFNg was 0.41 (inactive).
With `COc1ccc(-c2csc(N3C(=O)CNC3=S)n2)cc1` the figure was 1.19 (inactive).
To `COc1ccc(-c2cc(C)nc3c(-c4ccccc4)cnn23)cc1` belongs 0.36 (inactive) and 0.19 (inactive).
With `Cc1nnc(SCC(=O)Nc2ccc(-c3nc4ccccc4s3)cc2)s1` the figure was 1 (inactive).
Regarding `CC(=O)NC(=S)Nc1sc2c(c1C#N)CCCCC2`, the fold change vs IFNg is 0.45 (inactive).
To `CCOC(=O)/C(C#N)=C/c1cc(C)n(-c2ccccc2)c1C` belongs 0.028 (inactive); to `O=C(/C=C/Nc1ccccc1F)c1ccc(Br)cc1`, 0.87 (inactive).
To `N#C/C(=C\c1ccc(N2CCOCC2)o1)c1nc2ccccc2[nH]1` belongs 0.94 (inactive); to `COc1ccc2[nH]c3c(c2c1)CCn1c-3nc2ccccc2c1=O`, 0.94 (inactive).
To `O=C(Nc1nc2ccccc2s1)c1cc2ccccc2s1` belongs 1.02 (inactive).
`Cc1ccc(C(=O)Nc2nc3ccccc3s2)s1`: the fold change vs IFNg is 1.22 (inactive).
Regarding `Cc1cc(-c2ccc(F)cc2)n2ncc(-c3ccccc3)c2n1`, the fold change vs IFNg was 0.09 (inactive).
